From ChEMBL document CHEMBL1201862, “PubChem BioAssay data set” (2004)
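All cell lines were grown in 96-well plates and treated with compound for 48 hours. GI50: concentration for 50% inhibition of growth.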 Activity calls are given as the source filed them. No stated cut-off is given here; in the data, active = GI50 up to about 1.1 µM and inactive = higher.

What was measured:
Assay in all cases: NCI anticancer screen, dose series, 48 h
A549 = system: A549
CAKI-1 = system: CAKI-1
COLO 205 = system: COLO 205
EKVX = system: EKVX
HL-60 = system: HL-60
LOX IMVI = system: LOX IMVI
MCF7 = system: MCF7
NCI-H460 = system: NCI-H460
OVCAR-3 = system: OVCAR-3
OVCAR-5 = system: OVCAR-5
RXF 393 = system: RXF 393
SF-295 = system: SF-295
SK-MEL-28 = system: SK-MEL-28
SK-MEL-5 = system: SK-MEL-5
SK-OV-3 = system: SK-OV-3
SN12C = system: SN12C
SNB-19 = system: SNB-19
TK-10 = system: TK-10
U-251 = system: U-251
UO-31 = system: UO-31

Row | SMILES | GI50 (A549) | GI50 (CAKI-1) | GI50 (COLO 205) | GI50 (EKVX) | GI50 (HL-60) | GI50 (LOX IMVI) | GI50 (MCF7) | GI50 (NCI-H460) | GI50 (OVCAR-3) | GI50 (OVCAR-5) | GI50 (RXF 393) | GI50 (SF-295) | GI50 (SK-MEL-28) | GI50 (SK-MEL-5) | GI50 (SK-OV-3) | GI50 (SN12C) | GI50 (SNB-19) | GI50 (TK-10) | GI50 (U-251) | GI50 (UO-31)
1 | O=C1OCC=C1COC1OC(CO)C(O)C(O)C1O (stereo not given) | > 100 µM (inactive) | > 100 µM (inactive) | > 100 µM (inactive) | > 100 µM (inactive) | 73.6 µM (inactive) | > 100 µM (inactive) | > 100 µM (inactive) | > 100 µM (inactive) | > 100 µM (inactive) | > 100 µM (inactive) | > 100 µM (inactive) | > 100 µM (inactive) | > 100 µM (inactive) | > 100 µM (inactive) | > 100 µM (inactive) | > 100 µM (inactive) | > 100 µM (inactive) | > 100 µM (inactive) | > 100 µM (inactive) | > 100 µM (inactive)
2 | COCCN(C(=O)c1ccccc1)C1CCC(=O)c2[nH]c3ccccc3c21 (stereo not given) | 15.6 µM (inactive) | 4.58 µM (inactive) | 15.5 µM (inactive) | 10.7 µM (inactive) | 8.87 µM (inactive) | > 21.1 µM (inactive) | 6.27 µM (inactive) | 12.8 µM (inactive) | 12.5 µM (inactive) | 16.9 µM (inactive) | 5.83 µM (inactive) | > 41 µM (inactive) | 6.07 µM (inactive) | 7.14 µM (inactive) | 15.5 µM (inactive) | 7.85 µM (inactive) | 11.2 µM (inactive) | 20.3 µM (inactive) | 2.08 µM (inactive) | 9.71 µM (inactive)
3 | COc1ccc(NC(=S)c2ccc([N+](=O)[O-])o2)cc1 | 3.18 µM (inactive) | 3.44 µM (inactive) | 0.386 µM (active) | 2.92 µM (inactive) | 1.99 µM (inactive) | 1.12 µM (inactive) | 1.8 µM (inactive) | 2.18 µM (inactive) | 1.19 µM (inactive) | 3.02 µM (inactive) | 1.99 µM (inactive) | 3.6 µM (inactive) | 3.22 µM (inactive) | 0.65 µM (active) | 12.3 µM (inactive) | 2.13 µM (inactive) | 2.72 µM (inactive) | 3.07 µM (inactive) | 0.885 µM (active) | 2.03 µM (inactive)
4 | C[N+]1(C)CN(c2ccccc2)C2(CCN(CCCC(=O)c3cccs3)CC2)C1=O | > 100 µM (inactive) | > 100 µM (inactive) | 48 µM (inactive) | > 100 µM (inactive) | > 100 µM (inactive) | 58.1 µM (inactive) | 53.8 µM (inactive) | 57 µM (inactive) | 94.2 µM (inactive) | 85.1 µM (inactive) | > 100 µM (inactive) | > 100 µM (inactive) | > 100 µM (inactive) | 28.1 µM (inactive) | > 100 µM (inactive) | > 100 µM (inactive) | > 100 µM (inactive) | > 100 µM (inactive) | > 100 µM (inactive) | 62.4 µM (inactive)
5 | O=C1CC2(CCC(O)(c3ccc4ccccc4c3)C(C(=O)c3ccc4ccccc4c3)C2)C(=O)c2ccccc2N1 (stereo not given) | > 100 µM (inactive) | > 100 µM (inactive) | > 100 µM (inactive) | > 100 µM (inactive) | > 100 µM (inactive) | > 100 µM (inactive) | 7.59 µM (inactive) | 29 µM (inactive) | > 100 µM (inactive) | > 100 µM (inactive) | > 100 µM (inactive) | > 100 µM (inactive) | > 100 µM (inactive) | 23 µM (inactive) | > 100 µM (inactive) | > 100 µM (inactive) | > 100 µM (inactive) | > 100 µM (inactive) | > 100 µM (inactive) | > 100 µM (inactive)
